Active and inactive are the calls of the source.
Key:
[1] = target: Sphingosine 1-phosphate receptor 1 (Homo sapiens, UniProt P21453); test: Fluorescence-based counterscreen assay for S1P4 agonists: Cell-based dose response high throughput screening assay to identify agonists of the Sphingosine 1-Phosphate Receptor 1 (S1P1). [Related pubchem assays (depositor defined):AID1509, AID1523, AID1801, AID463107, AID463118, AID463119, AID463122, AID463123, AID463129, AID463225, AID504400, AID504460]; assay type: functional
Chain of Sphingosine 1-phosphate receptor 1 (P21453 whole entry): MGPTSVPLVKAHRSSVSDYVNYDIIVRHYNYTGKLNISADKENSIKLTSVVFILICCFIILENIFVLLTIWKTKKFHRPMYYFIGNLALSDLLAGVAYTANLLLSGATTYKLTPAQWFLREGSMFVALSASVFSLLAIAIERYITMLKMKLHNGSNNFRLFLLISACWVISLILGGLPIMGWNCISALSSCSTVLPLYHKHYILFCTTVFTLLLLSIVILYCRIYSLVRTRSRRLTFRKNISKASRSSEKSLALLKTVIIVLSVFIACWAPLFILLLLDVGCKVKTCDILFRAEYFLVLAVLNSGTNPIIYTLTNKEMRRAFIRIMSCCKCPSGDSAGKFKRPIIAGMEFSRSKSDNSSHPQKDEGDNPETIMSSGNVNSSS

[2] = target: Sphingosine 1-phosphate receptor 4 (Homo sapiens, UniProt O95977); test: Fluorescence dose response cell-based high throughput screening assay for agonists of the Sphingosine 1-Phosphate Receptor 4 (S1P4). [Related pubchem assays: 1509 (Primary screen.), 1523 (Confirmation screen in triplicates.)]; assay type: functional
Chain of Sphingosine 1-phosphate receptor 4 (O95977 whole entry): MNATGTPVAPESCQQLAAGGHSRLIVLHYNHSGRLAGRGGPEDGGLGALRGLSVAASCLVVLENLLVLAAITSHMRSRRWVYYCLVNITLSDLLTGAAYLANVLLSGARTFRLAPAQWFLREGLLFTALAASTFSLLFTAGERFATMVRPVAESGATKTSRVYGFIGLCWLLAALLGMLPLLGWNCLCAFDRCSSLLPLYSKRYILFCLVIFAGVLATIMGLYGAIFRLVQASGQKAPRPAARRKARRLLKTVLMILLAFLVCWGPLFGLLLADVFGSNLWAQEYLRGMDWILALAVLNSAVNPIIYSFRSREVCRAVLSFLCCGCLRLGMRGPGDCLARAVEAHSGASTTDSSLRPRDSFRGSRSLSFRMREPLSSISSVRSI

[3] = target: T1, E3 ubiquitin-protein ligase XIAP (Homo sapiens, UniProt P98170); test: SAR analysis of Antagonists of IAP-family anti-apoptotic proteins. [Related pubchem assays (depositor defined):AID1018, AID1449, AID1513, AID1514, AID1638]
T1 sequence (P98170 whole entry, the tested form may be a part): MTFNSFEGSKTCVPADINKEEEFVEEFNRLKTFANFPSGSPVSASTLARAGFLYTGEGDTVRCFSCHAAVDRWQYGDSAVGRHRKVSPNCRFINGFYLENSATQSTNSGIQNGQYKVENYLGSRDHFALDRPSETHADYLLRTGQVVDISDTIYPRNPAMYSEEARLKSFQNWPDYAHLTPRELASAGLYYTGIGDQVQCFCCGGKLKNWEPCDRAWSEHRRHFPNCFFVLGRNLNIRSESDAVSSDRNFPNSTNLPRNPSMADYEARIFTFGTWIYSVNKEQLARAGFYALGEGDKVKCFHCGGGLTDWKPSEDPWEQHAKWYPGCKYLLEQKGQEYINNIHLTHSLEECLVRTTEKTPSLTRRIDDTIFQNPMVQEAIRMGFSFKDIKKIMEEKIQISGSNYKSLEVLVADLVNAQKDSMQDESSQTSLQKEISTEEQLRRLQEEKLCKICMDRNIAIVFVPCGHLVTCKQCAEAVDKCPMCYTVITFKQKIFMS

[4] = target: T1, E3 ubiquitin-protein ligase XIAP; test: SAR analysis of Antagonists of XIAP-Bir3 domain of IAP-family anti-apoptotic proteins. [Related pubchem assays (depositor defined):AID1018, AID1449, AID1513, AID1514, AID1638]
Cannabinoid receptor 1 [5] = target: T2, Cannabinoid receptor 1 (Homo sapiens, UniProt P21554); test: SAR analysis of antagonists of the Cannabinoid Receptor 1 using an Image-Based Assay - Set 2. [Related pubchem assays (depositor defined):AID2013, AID2026]; assay type: functional
T2 sequence (P21554 whole entry): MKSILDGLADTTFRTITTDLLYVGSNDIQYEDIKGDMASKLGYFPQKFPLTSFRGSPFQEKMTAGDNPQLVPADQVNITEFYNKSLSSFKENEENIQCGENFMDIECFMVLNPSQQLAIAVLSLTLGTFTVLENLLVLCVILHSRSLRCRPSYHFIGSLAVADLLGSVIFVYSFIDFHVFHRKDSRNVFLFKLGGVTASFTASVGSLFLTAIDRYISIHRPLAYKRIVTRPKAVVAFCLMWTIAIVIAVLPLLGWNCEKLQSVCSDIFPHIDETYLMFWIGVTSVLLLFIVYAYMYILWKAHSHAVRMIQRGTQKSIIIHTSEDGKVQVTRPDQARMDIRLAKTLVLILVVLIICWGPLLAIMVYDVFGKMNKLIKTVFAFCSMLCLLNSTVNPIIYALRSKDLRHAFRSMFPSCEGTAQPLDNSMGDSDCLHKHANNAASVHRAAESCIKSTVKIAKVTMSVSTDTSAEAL

Cannabinoid receptor 2 [6] = target: T3, Cannabinoid receptor 2 (Homo sapiens, UniProt P34972); test: SAR analysis of antagonists of the Cannabinoid Receptor 2 using an Image-Based Assay. [Related pubchem assays (depositor defined):AID2013, AID2026]; assay type: functional
T3 sequence (P34972 whole entry): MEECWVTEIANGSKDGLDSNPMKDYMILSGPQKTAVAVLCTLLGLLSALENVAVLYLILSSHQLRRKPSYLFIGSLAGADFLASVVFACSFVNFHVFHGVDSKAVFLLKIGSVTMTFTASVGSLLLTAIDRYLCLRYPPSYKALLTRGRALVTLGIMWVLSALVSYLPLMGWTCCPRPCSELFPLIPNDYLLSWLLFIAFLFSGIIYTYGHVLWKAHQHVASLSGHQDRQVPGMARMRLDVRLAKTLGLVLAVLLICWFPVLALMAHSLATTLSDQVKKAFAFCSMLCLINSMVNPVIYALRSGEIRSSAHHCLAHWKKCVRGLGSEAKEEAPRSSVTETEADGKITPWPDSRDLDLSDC

Cannabinoid receptor 2 [7] = target: T3, Cannabinoid receptor 2; test: SAR analysis of agonists of the Cannabinoid Receptor 2 using an Image-Based Assay. [Related pubchem assays (depositor defined):AID2013, AID2026]; assay type: functional
Cannabinoid receptor 1 [8] = target: T2, Cannabinoid receptor 1; test: SAR analysis of agonists of the Cannabinoid Receptor 1 using an Image-Based Assay - Set 2. [Related pubchem assays (depositor defined):AID2013, AID2026]; assay type: functional
[9] = target: T4, G-protein coupled receptor 55 (Homo sapiens, UniProt Q9Y2T6); test: blockade of LPI-induced GPR55 arrestin translocation – imaging, U2OS, beta-arrestin-GFP, LPI agonist, set 2, SAR follow-up (AID 2820); assay type: functional
T4 sequence (Q9Y2T6 whole entry): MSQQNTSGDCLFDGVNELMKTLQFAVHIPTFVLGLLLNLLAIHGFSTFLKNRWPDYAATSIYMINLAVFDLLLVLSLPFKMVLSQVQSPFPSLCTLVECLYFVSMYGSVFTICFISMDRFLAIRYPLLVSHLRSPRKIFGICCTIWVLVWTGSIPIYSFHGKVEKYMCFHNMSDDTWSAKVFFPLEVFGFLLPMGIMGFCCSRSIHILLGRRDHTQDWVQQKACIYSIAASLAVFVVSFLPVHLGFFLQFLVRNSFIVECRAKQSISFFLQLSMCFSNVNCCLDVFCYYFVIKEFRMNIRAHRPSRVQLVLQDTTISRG

[10] = target: T5, G-protein coupled receptor 35 (Homo sapiens, UniProt Q9HC97); test: SAR analysis of Antagonists of the GPR35 Receptor using an Image-Based Assay - Set 3. [Related pubchem assays (depositor defined):AID2013, AID2026]; assay type: functional
T5 sequence (Q9HC97 whole entry): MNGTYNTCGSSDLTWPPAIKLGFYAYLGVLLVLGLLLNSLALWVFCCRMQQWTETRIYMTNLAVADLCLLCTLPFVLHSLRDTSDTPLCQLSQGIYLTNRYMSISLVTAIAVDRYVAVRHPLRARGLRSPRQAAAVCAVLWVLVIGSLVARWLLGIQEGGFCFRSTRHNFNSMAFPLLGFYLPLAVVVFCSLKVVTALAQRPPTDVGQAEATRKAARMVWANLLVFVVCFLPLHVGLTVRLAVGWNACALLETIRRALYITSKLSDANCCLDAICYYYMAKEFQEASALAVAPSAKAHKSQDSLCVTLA

[11] = target: T5, G-protein coupled receptor 35; test: SAR analysis of Agonists of the GPR35 Receptor using an Image-Based Assay - Set 2. [Related pubchem assays (depositor defined):AID2013, AID2026]; assay type: functional
[12] = target: T4, G-protein coupled receptor 55; test: inhibition of LPI-stimulated GPR55 beta-arrestin translocation – imaging, U2OS, beta-arrestin-GFP, LPI agonist, primary screen (AID 2013); assay type: functional;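 note: antagonist potency measured as reduced agonist-driven arrestin aggregation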
[13] = target: T6, Carboxy-terminal domain RNA polymerase II polypeptide A small phosphatase 1 (Homo sapiens, UniProt Q9GZU7); test: CTDSP1 inhibitors, concentration-response, biochemical, absorbance readout, ultra-high-throughput screen actives (AID 540297); assay type: functional
T6 sequence (Q9GZU7 whole entry): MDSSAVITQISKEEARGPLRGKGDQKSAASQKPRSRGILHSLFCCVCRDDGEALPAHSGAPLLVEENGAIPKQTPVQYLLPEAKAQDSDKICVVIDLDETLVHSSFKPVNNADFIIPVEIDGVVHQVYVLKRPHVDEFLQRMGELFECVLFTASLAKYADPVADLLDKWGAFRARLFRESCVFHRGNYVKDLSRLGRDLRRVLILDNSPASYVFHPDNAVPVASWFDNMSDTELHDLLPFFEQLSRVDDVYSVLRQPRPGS

[14] = Trypanosoma cruzi growth suppression in host cells – NIH3T3 host cells, beta-gal luminescence, confirmation (AID 2044); assay type: functional, cell-based;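 note: intracellular parasites grown in NIH/3T3 mouse fibroblasts as host cells; luminescent beta-galactosidase reporter signal from transgenic T. cruzi replicating inside host cells; inhibitors lower the luminescence signal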
[15] = viability of HCT116 lacking mutant beta-catenin – cell-based, human colon tumor, dose response (AID 1045); assay type: functional;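 note: HCT116 colon tumor cells with beta catenin knocked out; cells exposed to compound for 60 hours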
[16] = NIH3T3 cell viability loss – ATP luminescence, mouse fibroblasts, counter-screen, dose response (AID 2010); assay type: functional, cell-based;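 note: cells exposed to compound for about 90 hours before reading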
Coagulation factor XII = target: T7, Coagulation factor XII (Homo sapiens, UniProt P00748); test: Factor XIIa Dose Response Confirmation from Single Well HTS. [Related pubchem assays (depositor defined):AID701]; assay type: functional
T7 sequence (P00748 whole entry): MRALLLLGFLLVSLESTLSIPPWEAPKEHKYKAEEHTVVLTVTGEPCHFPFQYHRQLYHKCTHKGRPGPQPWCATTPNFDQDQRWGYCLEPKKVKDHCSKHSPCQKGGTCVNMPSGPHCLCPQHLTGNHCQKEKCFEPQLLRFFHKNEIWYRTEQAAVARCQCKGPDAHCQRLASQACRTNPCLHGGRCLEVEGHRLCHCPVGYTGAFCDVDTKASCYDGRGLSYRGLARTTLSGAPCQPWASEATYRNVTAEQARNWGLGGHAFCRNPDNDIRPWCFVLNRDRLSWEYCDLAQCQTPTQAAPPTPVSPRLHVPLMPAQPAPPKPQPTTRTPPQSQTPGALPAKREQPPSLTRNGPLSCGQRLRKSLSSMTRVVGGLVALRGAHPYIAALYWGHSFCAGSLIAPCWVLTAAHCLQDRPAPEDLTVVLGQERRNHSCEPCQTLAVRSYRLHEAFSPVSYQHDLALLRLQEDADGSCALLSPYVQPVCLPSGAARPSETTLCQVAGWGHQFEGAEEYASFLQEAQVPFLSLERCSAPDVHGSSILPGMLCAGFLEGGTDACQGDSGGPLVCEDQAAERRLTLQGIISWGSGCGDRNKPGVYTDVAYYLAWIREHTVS

Estrogen receptor = target: T8, Estrogen receptor (Homo sapiens, UniProt P03372);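 note: potency for inhibiting coactivator peptide recruitment to the receptor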
T8 sequence (P03372 whole entry): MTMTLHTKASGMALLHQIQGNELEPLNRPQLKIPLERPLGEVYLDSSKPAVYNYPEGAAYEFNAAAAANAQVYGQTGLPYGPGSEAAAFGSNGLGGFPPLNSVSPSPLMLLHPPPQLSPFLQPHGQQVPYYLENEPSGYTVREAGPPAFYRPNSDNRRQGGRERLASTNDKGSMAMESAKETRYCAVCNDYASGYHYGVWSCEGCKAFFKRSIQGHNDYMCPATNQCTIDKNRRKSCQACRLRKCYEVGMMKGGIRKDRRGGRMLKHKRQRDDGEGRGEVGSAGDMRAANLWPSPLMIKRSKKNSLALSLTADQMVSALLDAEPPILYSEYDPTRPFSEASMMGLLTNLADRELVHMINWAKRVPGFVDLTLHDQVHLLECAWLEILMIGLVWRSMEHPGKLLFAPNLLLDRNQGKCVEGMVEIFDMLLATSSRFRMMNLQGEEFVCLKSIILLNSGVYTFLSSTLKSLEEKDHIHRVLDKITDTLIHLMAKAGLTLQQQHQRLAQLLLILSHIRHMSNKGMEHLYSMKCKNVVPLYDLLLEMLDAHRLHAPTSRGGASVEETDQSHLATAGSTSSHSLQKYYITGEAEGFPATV

[17] = viability of PTEN-deleted HCT116 cells – cell-based, HCT116 PTEN knockout, dose response (AID 1047); assay type: functional;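 note: HCT116 colon tumor cells with PTEN knocked out; cells exposed to compound for 60 hours before readout; potency for loss of cell viability measured by luminescence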
[18] = target: T9, Kappa-type opioid receptor (Homo sapiens, UniProt P41145); test: SAR analysis of small molecule antagonists of the kappa opioid receptor via a luminescent beta-arrestin assay - Set 4. [Related pubchem assays (depositor defined):AID1777, AID1778, AID1785, AID1786, AID1966, AID2133, AID2136, AID2285]; assay type: functional
T9 sequence (P41145 whole entry): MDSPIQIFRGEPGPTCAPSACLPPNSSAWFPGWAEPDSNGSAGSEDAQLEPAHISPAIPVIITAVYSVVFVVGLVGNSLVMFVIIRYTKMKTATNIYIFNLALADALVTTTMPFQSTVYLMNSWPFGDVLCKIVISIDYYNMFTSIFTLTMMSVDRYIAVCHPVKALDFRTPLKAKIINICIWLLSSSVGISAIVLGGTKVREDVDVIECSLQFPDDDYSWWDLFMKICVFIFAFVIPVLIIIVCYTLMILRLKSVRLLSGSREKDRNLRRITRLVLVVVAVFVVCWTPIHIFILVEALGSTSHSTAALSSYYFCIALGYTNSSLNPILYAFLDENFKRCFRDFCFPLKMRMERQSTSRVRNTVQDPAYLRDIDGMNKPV

[19] = target: T9, Kappa-type opioid receptor; test: SAR analysis of small molecule antagonists of the kappa opioid receptor via a luminescent beta-arrestin assay - Set 5. [Related pubchem assays (depositor defined):AID1778, AID1785]; assay type: functional
[20] = target: T5, G-protein coupled receptor 35; test: SAR analysis of Agonists of the GPR35 Receptor using an Image-Based Assay - Set 3. [Related pubchem assays (depositor defined):AID1961, AID1965]; assay type: functional
[21] = target: T4, G-protein coupled receptor 55; test: SAR analysis of selective Agonists of GPR55 using an Image-Based Assay - Set 2. [Related pubchem assays (depositor defined):AID1961, AID1965]; assay type: functional
Cannabinoid receptor 2 [22] = target: T3, Cannabinoid receptor 2; test: SAR analysis of agonists of the Cannabinoid Receptor 2 using an Image-Based Assay - Set 2. [Related pubchem assays (depositor defined):AID1961, AID1965]; assay type: functional
[23] = target: T5, G-protein coupled receptor 35; test: SAR analysis of Antagonists of the GPR35 Receptor using an Image-Based Assay - Set 4. [Related pubchem assays (depositor defined):[…]]; assay type: functional
Cannabinoid receptor 1 [24] = target: T2, Cannabinoid receptor 1; test: SAR analysis of agonists of the Cannabinoid Receptor 1 using an Image-Based Assay - Set 3. [Related pubchem assays (depositor defined):AID1961, AID1965]; assay type: functional
Cannabinoid receptor 1 [25] = target: T2, Cannabinoid receptor 1; test: SAR analysis of antagonists of the Cannabinoid Receptor 1 using an Image-Based Assay - Set 3. [Related pubchem assays (depositor defined):AID1961, AID1965]; assay type: functional
Cannabinoid receptor 2 [26] = target: T3, Cannabinoid receptor 2; test: SAR analysis of antagonists of the Cannabinoid Receptor 2 using an Image-Based Assay - Set 2. [Related pubchem assays (depositor defined):AID1961, AID1965]; assay type: functional
[27] = target: T9, Kappa-type opioid receptor; test: kappa opioid receptor activation by imaging – image-based, set 3, SAR follow-up (AID 488833); assay type: functional
[28] = target: Delta-type opioid receptor (Homo sapiens, UniProt P41143); test: SAR Analysis of Agonists of the DOR Receptor using an Image-Based Assay - Set 3. [Related pubchem assays (depositor defined):AID1777, AID1786]; assay type: functional
Chain of Delta-type opioid receptor (P41143 whole entry): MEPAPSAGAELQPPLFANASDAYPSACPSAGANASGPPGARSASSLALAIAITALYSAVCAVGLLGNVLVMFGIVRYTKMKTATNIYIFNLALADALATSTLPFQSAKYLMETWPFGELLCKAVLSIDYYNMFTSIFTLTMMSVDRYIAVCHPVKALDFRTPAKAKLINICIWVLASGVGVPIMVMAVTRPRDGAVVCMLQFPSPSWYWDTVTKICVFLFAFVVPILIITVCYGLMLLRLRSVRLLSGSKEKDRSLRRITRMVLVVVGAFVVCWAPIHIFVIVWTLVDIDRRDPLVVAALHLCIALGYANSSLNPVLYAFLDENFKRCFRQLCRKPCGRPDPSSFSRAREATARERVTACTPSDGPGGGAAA

Mu-type opioid receptor = Mu-type opioid receptor (Homo sapiens, UniProt P35372); test: SAR Analysis of Agonists of the MOR Receptor using an Image-Based Assay - Set 3. [Related pubchem assays (depositor defined):AID1777, AID1785, AID1786, AID1966, AID2133, AID2136, AID2284, AID2285, AID2352]; assay type: functional
Chain of Mu-type opioid receptor (P35372 whole entry): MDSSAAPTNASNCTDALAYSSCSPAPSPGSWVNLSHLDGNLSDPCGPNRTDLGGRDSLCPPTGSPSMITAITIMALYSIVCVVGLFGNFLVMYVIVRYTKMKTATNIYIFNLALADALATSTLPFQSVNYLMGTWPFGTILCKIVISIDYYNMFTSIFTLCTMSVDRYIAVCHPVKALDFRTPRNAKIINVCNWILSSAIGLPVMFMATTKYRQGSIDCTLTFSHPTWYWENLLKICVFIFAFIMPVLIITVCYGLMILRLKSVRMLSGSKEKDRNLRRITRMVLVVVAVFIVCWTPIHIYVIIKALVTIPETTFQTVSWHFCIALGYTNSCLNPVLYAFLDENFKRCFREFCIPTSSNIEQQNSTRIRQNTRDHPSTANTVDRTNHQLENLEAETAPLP

[29] = target: T9, Kappa-type opioid receptor; test: SAR analysis of small molecule agonists of the kappa opioid receptor via a luminescent beta-arrestin assay - Set 3. [Related pubchem assays (depositor defined):AID1777, AID1785, AID1786, AID1966, AID2133, AID2136, AID2284, AID2500]; assay type: functional
[30] = Luminescence Cell-Based Dose Retest to Confirm Inhibitors of Cancer Stem Cells. [Related pubchem assays (depositor defined):AID2717, AID2721]; assay type: functional; conditions: Homo sapiens
[31] = target: DNA damage-inducible transcript 3 protein (Mus musculus, UniProt P35639); assay type: functional, Cricetulus griseus
Chain of DNA damage-inducible transcript 3 protein (P35639 whole entry): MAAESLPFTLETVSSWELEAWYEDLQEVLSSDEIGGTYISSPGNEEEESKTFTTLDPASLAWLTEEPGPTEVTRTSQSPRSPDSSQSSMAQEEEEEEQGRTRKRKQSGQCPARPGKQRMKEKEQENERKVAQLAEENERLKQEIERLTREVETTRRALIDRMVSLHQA
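Throughout, for AC50: cells exposed to compound for roughly 70 hours or longer before luminescence read.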

Compound: CC(C)c1cc(C(=O)OCC(=O)NC(=O)NCc2ccco2)c(O)c(C(C)C)c1
- EC50 [1]: > 49.8 µM (inactive)
- EC50 [2]: > 49.8 µM (not active)

Compound: CN[C@@H](C)C(=O)N[C@H](C(=O)N1CCC[C@H]1C(=O)Nc1ccc2ncccc2c1)C(C)C
- IC50 [3]: 11.4 µM (active)
- IC50 [4]: 94.9 µM (active)

Compound: Cc1cccc(-c2cc(C(=O)Nc3sc(C)c(C)c3C(N)=O)c3ccccc3n2)c1
- IC50 (Cannabinoid receptor 1 [5]): 24.1 µM (inactive)
- IC50 (Cannabinoid receptor 2 [6]): > 32 µM (inactive)
- EC50 (Cannabinoid receptor 2 [7]): > 32 µM (inactive)
- EC50 (Cannabinoid receptor 1 [8]): > 32 µM (inactive)
- IC50 [9]: 1.44 µM (active)
- IC50 [10]: > 32 µM (inactive)
- EC50 [11]: > 32 µM (inactive)
- IC50 [12]: 0.869 µM (active)

Compound: Cc1ccc2[nH]c(/C(C#N)=C\c3ccc(N4CCCCC4)c([N+](=O)[O-])c3)nc2c1
- IC50 [13]: 2.45 µM (active)
- EC50 [14]: 2 µM (active)
- EC50 [15]: 22 µM (active)
- EC50 [16]: > 60 µM (inconclusive)
- IC50 (Coagulation factor XII): 1.02 µM (active)
- IC50 (Estrogen receptor): 4.23 µM (active)
- EC50 [17]: 19.4 µM (active)

Compound: Cc1ccc(S(=O)(=O)NCc2cccc(C(=O)NCCN(Cc3ccccc3)C(C)C)c2)cc1
- IC50 [18]: > 20 µM (inactive)
- IC50 [19]: > 20 µM (inactive)

Compound: CCN(CC)S(=O)(=O)c1ccc(N2CCC(C)CC2)c(C(=O)N2CCN(c3ccccc3)CC2)c1
- EC50 [20]: > 32 µM (inactive)
- EC50 [21]: > 32 µM (inactive)
- EC50 (Cannabinoid receptor 2 [22]): > 32 µM (inactive)
- IC50 [23]: > 32 µM (inactive)
- EC50 (Cannabinoid receptor 1 [24]): > 32 µM (inactive)
- IC50 (Cannabinoid receptor 1 [25]): > 32 µM (inactive)
- IC50 (Cannabinoid receptor 2 [26]): > 32 µM (inactive)

Compound: Fc1ccc(CSc2nnc(-c3ccccn3)n2Cc2cccs2)c(F)c1F
- EC50 [27]: 1.73 µM (active)
- EC50 [28]: > 32 µM (inactive)
- EC50 (Mu-type opioid receptor): > 32 µM (inactive)
- EC50 [29]: 3.04 µM (active)

Compound: Cc1ccc(COc2ccc(Br)cc2/C=N/O)cc1
- AC50 [30]: 6.11 µM (active)
- Absolute IC50 (CHOP) [31]: 10 µM
